In patent US20130029991A1, “New Phenylsulfamoyl Benzamide Derivatives as Bradykinin Antagonists” (priority 2006, published 2013):
Counter-ions that a name gives are not always drawn.

Tests used:
[1] = target: T1, human recombinant bradykinin B1 receptor (Homo sapiens, UniProt P46663); test: Human recombinant bradykinin B1 receptor binding; conditions: CHO cell membranes, [3H]-[Des-Arg10] Kallidin radioligand; read-out: B1 binding
T1 construct: host or cells: CHO cells
T1 sequence (P46663 1-353): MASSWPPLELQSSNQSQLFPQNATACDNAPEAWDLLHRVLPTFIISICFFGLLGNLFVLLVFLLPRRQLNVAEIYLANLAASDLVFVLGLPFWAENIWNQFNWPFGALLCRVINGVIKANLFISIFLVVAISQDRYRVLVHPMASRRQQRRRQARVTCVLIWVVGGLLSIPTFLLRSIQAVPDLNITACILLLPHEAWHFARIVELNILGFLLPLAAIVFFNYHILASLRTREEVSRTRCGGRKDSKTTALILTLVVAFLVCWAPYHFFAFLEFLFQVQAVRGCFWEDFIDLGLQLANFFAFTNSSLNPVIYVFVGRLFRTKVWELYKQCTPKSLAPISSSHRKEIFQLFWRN
Description: 1. Human Recombinant Bradykinin B1 Receptor Binding
Binding assays were carried out on human recombinant bradykinin) receptors (expressed in CHO cells) according to the Euroscreen Technical Data Sheet (Cat.No.:ES-091). 20 μg protein/tube was incubated with [3,4-prolyl-3,4-^3H(N)]-[Des-Arg^10] Kallidin as radioligand. Non specific binding was determined in the presence of 10 μM Lys-des-Arg^9-Bradykinin. The final incubation volume was 250 μl. Samples were incubated for 15 min. at 25° C. then were rapidly vacuum filtered through GF/B filters presoaked for at least 1 h in 0.5% PEI. Radioactivity was determined by liquid scintillation spectroscopy.

[2] = target: T2, recombinant human B1 receptors (Homo sapiens, UniProt P46663); test: Functional assay: antagonist potency by cytosolic calcium measurement (fluo-4, plate reader fluorimeter) in CHO-B1 cells; type: cell-based; conditions: CHO-B1 cells, inhibition of LysDABK (EC80)-evoked [Ca2+]i elevation; read-out: B1 func.
T2 construct: host or cells: CHO (CHO-B1)
T2 sequence (P46663 1-353): T1 sequence (P46663 1-353)
Description: Assessment of Antagonist Potency at B1 and B2 Receptors In Vitro by Measurement of Cytosolic Calcium Ion Concentration with a Plate Reader Fluorimeter in Cells Expressing Recombinant Human B1 or B2 Receptors
Chinese hamster ovary (CHO) cells stably expressing recombinant human B1 (CHO-B1, Euroscreen) or B2 (CHO-B2, Perkin-Elmer) receptors were cultured in Dulbecco's Modified Eagle's Medium (DMEM) containing 10% Fetal Calf Serum (FCS), 100 U/ml penicillin, 0.1 mg/ml streptomycin, 0.25 μg/ml amphotericin B, 1% Minimum Essential Medium Eagle (MEM), non essential amino acid solution, […], 1% pyruvate (for the B2 cell line). Cells were kept at 37° C. in a humidified incubator in an atmosphere of 5% CO2/95% air and were passaged 1:4 three times a week. Cells were plated at 1.5-2.5×10^4 cell/well on standard 96-well microplates, measurements of cytosolic calcium ion concentration ([Ca^2+]i) were carried out 1-2 days after cell plating.
Measurements of [Ca^2+]i were carried out on CHO-B1 and CHO-B2 cells stably expressing human B1 and B2 receptors, respectively. Cells were grown in standard 96-well microplates and before the measurement were loaded with a fluorescent Ca^2+-sensitive dye, fluo-4/AM (2 μM): after removing the culture medium the dye was added to the cells (dissolved in assay buffer: 145 mM NaCl, 5 mM KCl, 2 mM MgCl2, 2 mM CaCl2, 10 mM HEPES, 20 mM D-glucose, 2 mM probenecid, 100 μl/well) and cells were incubated at 37° C. in a humidified incubator in an atmosphere of 5% CO2/95% air for 40-120 min. To stop dye loading cells were washed twice with assay buffer. After washing, various concentrations of the test compounds (diluted in extracellular medium from a DMSO stock solution, final DMSO concentration was <0.1%) or buffer were added to each well depending on the experimental setup. After incubation at 37° C. for 20-25 min. baseline and agonist-evoked changes of [Ca^2+]i were measured column by column with a plate reader fluorimeter (Fluoroskan Ascent, Labsystems). Excitation and detection of emission was carried out from the bottom of the plate. Filters used for Fluo-4: excitation filter—485 nm, emission filter—538 nm. The whole measurement process was performed at 37° C. and was controlled by custom software Inhibitory potency of the test compounds was assessed by measuring the reduction in the agonist-evoked [Ca^2+]i-elevation in the presence of different concentrations of the compounds. The agonists were LysDABK for CHO-B1, and bradykinin for CHO-B2 cells. Agonists were applied at an EC80 concentration, the EC80-values were derived from daily determined dose-response curves. Fluorescence data were expressed as ΔF/F (fluorescence change normalized to baseline). All treatments on a single plate were measured in multiple wells. Data from all wells with the same treatment were averaged and the average values were used for analysis. Inhibitory potency of a compound at a single concentration point was expressed as percent inhibition of the control agonist response. Sigmoidal concentration-inhibition curves were fitted to the data (derived from at least three independent experiments) and IC50-values were determined as the concentration that produces half of the maximal inhibition caused by the compound.

SMILES	Ki [1] [nM]	IC50 [2] [nM]
O=C(CNC(=O)c1ccc(S(=O)(=O)Nc2ccccc2Oc2ccccc2)cc1)NCC1CCNCC1 [Example 5, 4-(2-Phenoxy-phenylsulfamoyl)-N-{[(piperidin-4-ylmethyl)-carbamoyl]-methyl}-benzamide hydrochloride]	20 to 100	20 to 100
CN(C)CCCNC(=O)CNC(=O)c1ccc(S(=O)(=O)Nc2ccccc2Oc2ccc(Cl)cc2Cl)cc1 [Example 25, 4-[2-(2,4-Dichloro-phenoxy)-phenylsulfamoyl]-N-[(3-dimethylamino-propylcarbamoyl)-methyl]-benzamide]	< 20	< 20
O=C(CNC(=O)c1ccc(S(=O)(=O)Nc2cc(F)ccc2Oc2ccc(F)cc2)cc1)NCC1CCNCC1 [Example 15, 4-[5-Fluoro-2-(4-fluoro-phenoxy)-phenylsulfamoyl]-N-{[(piperidin-4-ylmethyl)-carbamoyl]-methyl}-benzamide hydrochloride]	< 20	< 20
O=C(CNC(=O)c1ccc(S(=O)(=O)Nc2cc(F)ccc2Oc2ccccc2)cc1)NCC1CCNCC1 [Example 7, 4-(5-Fluoro-2-phenoxy-phenylsulfamoyl)-N-{[(piperidin-4-ylmethyl)-carbamoyl]-methyl}-benzamide hydrochloride]	< 20	< 20
O=C(CNC(=O)c1ccc(S(=O)(=O)Nc2ccccc2Oc2ccc(Cl)cc2Cl)cc1)NCCC1CCNCC1 [Example 22, 4-[2-(2,4-Dichloro-phenoxy)-phenylsulfamoyl]-N-[(2-piperidin-4-yl-ethylcarbamoyl)-methyl]-benzamide acetate]	< 20	< 20
O=C(CNC(=O)c1ccc(S(=O)(=O)Nc2ccccc2Oc2ccccc2)cc1)Nc1ccc(N2CCC(N3CCCCC3)CC2)cc1 [Example 49, N-[(4-[1,4′]Bipiperidinyl-1′-yl-phenylcarbamoyl)-methyl]-4-(2-phenoxy-phenylsulfamoyl)-benzamide]	< 20	< 20
O=C(CNC(=O)c1ccc(S(=O)(=O)Nc2ccccc2Oc2ccccc2)cc1)NC1CCNCC1 [Example 66, 4-(2-Phenoxy-phenylsulfamoyl)-N-(piperidin-4-ylcarbamoylmethyl)-benzamide hydrochloride]	< 20	< 20
O=C(CNC(=O)c1ccc(S(=O)(=O)Nc2ccccc2Oc2ccc(Cl)cc2Cl)cc1)NCCCCN1CCCCC1 [Example 63, 4-[2-(2,4-Dichloro-phenoxy)-phenylsulfamoyl]-N-[(4-piperidin-1-yl-butylcarbamoyl)-methyl]-benzamide]	< 20	< 20
CN(C)CCCNC(=O)CNC(=O)c1ccc(S(=O)(=O)Nc2ccccc2Oc2ccccc2)cc1 [Example 54, N-[(3-Dimethylamino-propylcarbamoyl)-methyl]-4-(2-phenoxy-phenylsulfamoyl)-benzamide]	< 20	< 20
O=C(CNC(=O)c1ccc(S(=O)(=O)Nc2ccccc2Oc2ccc(Cl)cc2Cl)cc1)NCCCN1CCOCC1 [Example 27, 4-[2-(2,4-Dichloro-phenoxy)-phenylsulfamoyl]-N-[(3-morpholin-4-yl-propylcarbamoyl)-methyl]-benzamide]	< 20	< 20
O=C(CNC(=O)c1ccc(S(=O)(=O)Nc2ccccc2Oc2ccc(Br)cc2)cc1)NCC1CCNCC1 [Example 3, 4-[2-(4-Bromo-phenoxy)-phenylsulfamoyl]-N-{[(piperidin-4-ylmethyl)-carbamoyl]-methyl}-benzamide trifluoroacetate]	< 20	< 20
O=C(CNC(=O)c1ccc(S(=O)(=O)Nc2ccccc2Oc2ccc(Cl)cc2Cl)cc1)NCCN1CCCCC1 [Example 23, 4-[2-(2,4-Dichloro-phenoxy)-phenylsulfamoyl]-N-[(2-piperidin-1-yl-ethylcarbamoyl)-methyl]-benzamide]	< 20	< 20
O=C(CNC(=O)c1ccc(S(=O)(=O)Nc2ccccc2Oc2ccc(Cl)cc2Cl)cc1)NCC1CCNCC1 [Example 1, 4-[2-(2,4-Dichloro-phenoxy)-phenylsulfamoyl]-N-{[(Piperidin-4-ylmethyl)-carbamoyl]-methyl}-benzamide hydrochloride]	< 20	< 20

Next, values leading:

Ki [1] [nM]	IC50 [2] [nM]	SMILES
< 20	< 20	O=C(CNC(=O)c1ccc(S(=O)(=O)Nc2ccccc2Oc2ccc(Cl)cc2Cl)cc1)NCCCN1CCCCC1 [Example 2, 4-[2-(2,4-Dichloro-phenoxy)-phenylsulfamoyl]-N-[(3-piperidin-1-yl-propylcarbamoyl)-methyl]-benzamide]
< 20	< 20	O=C(CNC(=O)c1ccc(S(=O)(=O)Nc2ccccc2Oc2ccc(Cl)cc2Cl)cc1)NC1CCC(N2CCCCC2)CC1 (stereo not drawn) [Example 62, 4-[2-(2,4-Dichloro-phenoxy)-phenylsulfamoyl]-N-[(4-piperidin-1-yl-cyclohexyl-carbamoyl)-methyl]-benzamide]
< 20	< 20	O=C(CNC(=O)c1ccc(S(=O)(=O)Nc2ccccc2Oc2ccccc2)cc1)NCCCN1CCC(N2CCCCC2)CC1 [Example 48, N-[(3-[1,4′]Bipiperidinyl-r-yl-propylcarbamoyl)-methyl]-4-(2-phenoxy-phenylsulfamoyl)-benzamide]
< 20	< 20	O=C(CNC(=O)c1ccc(S(=O)(=O)Nc2ccccc2Oc2ccc(Cl)cc2Cl)cc1)NCCCC1CCNCC1 [Example 61, 4-[2-(2,4-Dichloro-phenoxy)-phenylsulfamoyl]-N-[(3-piperidin-4-yl-propylcarbamoyl)-methyl]-benzamide hydrochloride]
< 20	< 20	N=C(N)N1CCC(CNC(=O)CNC(=O)c2ccc(S(=O)(=O)Nc3ccccc3Oc3ccc(Cl)cc3Cl)cc2)CC1 [Example 14, N-{[(1-Carbamimidoyl-piperidin-4-ylmethyl)-carbamoyl]-methyl}-4-[2-(2,4-dichloro-phenoxy)-phenylsulfamoyl]-benzamide hydrochloride]
< 20	< 20	O=C(CNC(=O)c1ccc(S(=O)(=O)Nc2ccccc2Oc2ccc(Cl)cc2Cl)cc1)NCCN1CCCC1 [Example 31, 4-[2-(2,4-Dichloro-phenoxy)-phenylsulfamoyl]-N-[(2-pyrrolidin-1-yl-ethylcarbamoyl)-methyl]-benzamide]
< 20	< 20	O=C(CNC(=O)c1ccc(S(=O)(=O)Nc2ccccc2Oc2ccccc2)cc1)NCC(=O)N1CCNCC1 [Example 16, N-[(2-Oxo-2-piperazin-1-yl-ethylcarbamoyl)-methyl]-4-(2-phenoxy-phenylsulfamoyl)-benzamide hydrochloride]
< 20	< 20	O=C(CNC(=O)c1ccc(S(=O)(=O)Nc2ccccc2Oc2ccc(Cl)cc2Cl)cc1)NC1CCNCC1 [Example 60, 4-[2-(2,4-Dichloro-phenoxy)-phenylsulfamoyl]-N-(piperidin-4-ylcarbamoylmethyl)-benzamide hydrochloride]
